Laboratory results reported in patent US20250009819A1, “NOVEL PROBIOTICS AND USE THEREOF” (PBLBIOLAB CO., LTD., priority 2021, published 2025).

Tests used:
BDNF = BDNF expression in SH-SY5Y cells; assay type: cell-based; conditions: LPS 200 ng/ml; lactic acid bacteria 1×10^4 CFU/ml; 24 h
Method: (§1) SH-SY5Y cells obtained from the Korean Cell Line Bank were cultured in DMEM medium supplemented with 10% FBS and 1% antibiotics, and dispensed at 2×10^6 cells per well in a 12-well plate. Then, LPS (200 ng/ml) was added to each well along with lactic acid bacteria (1×10^4 CFU/ml) and incubated for 24 h. The cells and supernatants were collected, sonicated and centrifuged, and the amount of BDNF in the supernatant was measured by ELISA kit.

Neuropeptide Y (NPY) = Neuropeptide Y (NPY) expression in PC12 phaeochromocytoma cells; assay type: cell-based; conditions: LPS 200 ng/ml; lactic acid bacteria 1×10^4 CFU/ml; 24 hr
Method: as §1, with “PC12” for “SH-SY5Y”, “1×10^6” for “2×10^6”, “hr.” for “h.”, “NPY” for “BDNF”

[1] = test system: animals with LPS-induced cognitive impairment; test: Animals with LPS-induced cognitive impairment: cognitive improvement, hippocampus indicators; assay type: in vivo, C57BL/6 male mice; conditions: LPS-treated mice, 1×10^9 CFU/mouse or sulfasalazine 50 mg/kg once a day for 5 days
Method: Hippocampus, colon, and spleen tissues were homogenized by adding 1 ml of RIPA buffer (Gibco) containing protease inhibitor cocktail and centrifuged at 4° C., 13000 rpm for 15 min to obtain supernatant. Indicators of this supernatant were measured using an ELISA kit (Ebioscience).
The Y-shaped maze measurement device is shaped like an alphabetical Y with three arms extending from it, each arm being 25 cm long, 14 cm high, 5 cm wide, and positioned at the same angle. At the end of one arm of the Y-shaped maze, the animal was placed with its head facing out and allowed to freely navigate the arm for 8 minutes. The animal's movements were recorded, and reported as arm entries when the animal entered the arm with its hind paw, and the animal's movement was represented by an alternation, which was defined as one alternation when the animal passed through the three arms in succession. The amount of spontaneous alternation behavior was expressed as a percentage between the actual number of alternations and the maximum possible number of alternations (i.e., the total number of […] minus 2).
The experiment was conducted in a box (40×40×40 cm) made so that the outside could not be seen from the inside. Two objects (A, A′) of the same shape and size were fixedly disposed in a box and the mouse was relocated to start from the center of the box. Then, the number of times the mouse made contact with the two objects was recorded for 10 minutes. After 24 hours, one of the two objects was replaced with a new object (A, B). Then, one original object and one new object were prepared, and the animal's exploration time was measured.
C57BL/6 male mice (5 weeks old, 19-21 g) were divided (6 mice in each group) and acclimatized to the laboratory for 1 week. To induce intestinal and brain diseases, mice were intraperitoneally administered Escherichia coli-derived LPS (10 μg/kg) once daily for 5 days. […] Experimental animals in the normal group were orally administered with a physiological saline solution, which was used to suspend lactic acid bacteria. The day following the conclusion of sample administration, the experimental animals were sacrificed, and samples from the brain hippocampus, colon, and spleen were collected. In the Hippocampus, inflammatory indicators, such as IFN-γ, TNF-α, and IL-10, were measured using ELISA. In the colon, intestinal length and inflammatory indicators, such as IFN-γ, TNF-α, and IL-10, were measured. In the spleen, Th1 cells and Treg cells were measured by FACS (Fluorescence-Activated Cell Sorting).

[2] = test system: animals with intestinal and brain diseases induced by TNBS; test: Animals with intestinal and brain diseases induced by TNBS: improvement effect in colon; assay type: in vivo, C57BL/6 male mice; conditions: TNBS-treated mice, 1×10^9 CFU/mouse or sulfasalazine 50 mg/kg orally once a day for 5 days
Method: Then, the supernatant was obtained by centrifugation for 10 minutes at 4° C. and 10,000 g. A volume of 50 μl of the supernatant was added to 0.95 mk of reaction solution (containing 1.6 mM tetramethyl benzidine and 0.1 mM H2O2), reacted at 37° C., and absorbance was monitored over time at 650 nm. […] Indicators of this supernatant were measured using an ELISA kit (Ebioscience). C57BL/6 male mice (5 weeks old, 19-21 g) were divided (6 mice in each group) and acclimatized to the laboratory for 1 week. […] Meanwhile, the normal group was orally administered with 0.1 ml of physiological saline. From the next day, the mice were orally administered once a day for 5 days with lactic acid bacteria as a test sample suspended in physiological saline solution at a concentration of 1×10^9 CFU per mouse (NK210 alone (LR): 1×10^9 CFU/mouse, NK219 alone (BL): 1×10^9 CFU/mouse, NK209 alone (LL): 1×10^9 CFU/mouse, combined (MX, 210+219): NK210, 8×10^8 CFU/mouse and NK219, 2×10^8 CFU/mouse, combined (MX, 209+219) NK209, 8×10^8 CFU/mouse and NK219, 2×10^8 CFU/mouse, LR+BL+LL: NK210, 4×10^8 CFU/mouse, NK219, 2×10^8 CFU/mouse, and NK209, 4×10^8 CFU/mouse, heat treated (H—), respectively: 1×10^9 CFU/mouse). […] The day following the conclusion of sample administration, the experimental animals were sacrificed, and samples from the brain hippocampus, colon, and spleen were collected. In the Hippocampus, inflammatory indicators, such as TNF-α and IL-10, were measured using ELISA. In the colon, intestinal length and inflammatory indicators, such as TNF-α and IL-10, were measured. In the spleen, Th1 cells and Treg cells were measured by FACS (Fluorescence-Activated Cell Sorting).

Row | Substance | SHSY5Y cell Induction of BDNF expression (BDNF) | PC12 cell Induction of NPY expression (Neuropeptide Y (NPY)) | Exoporation (%) (in NOR task) [1] | Spontaneous alteration (%) (in Y-maze task) [1] | IFN-γ/IL-10 ([1]; hippocampus) | IL-10 ([1]; hippocampus) | Interferon (IFN)-γ ([1]; hippocampus) | TNF-α/IL-10 ([1]; hippocampus) | Colon IFN-γ [2] | Colon IL-10 [2] | Colon MPO [2] | Colon TNF-α [2] | Colon length (cm) [2] | TNF-α ([1]; hippocampus)
1 | Lactobacillus rhamnosus NK210 | ++ (strongly (++; >60-90%)) | +++ (very strongly (+++; >90%)) | 76.00% | 69.36% | 0.52 | 46.94 pg/mg | 23.04 pg/mg | 0.23 | 8.42 pg/mg | 15.31 pg/mg | 18.43 μUnit/mg | 23.84 pg/mg | 4.63 cm | –
2 | Lactococcus lactis NK209 | + (weakly (+; >20-60%)) | + (weakly (+; >20-60%)) | – | – | – | – | – | – | 7.89 pg/mg | 17.10 pg/mg | 15.65 μUnit/mg | 20.12 pg/mg | 4.89 cm | –
3 | Bifidobacterium longum NK219 | +++ (very strongly (+++; >90%)) | ++ (strongly (++; >60-90%)) | 76.97% | 71.06% | 0.50 | 47.71 pg/mg | 24.09 pg/mg | 0.24 | 7.79 pg/mg | 17.20 pg/mg | 16.24 μUnit/mg | 20.57 pg/mg | 4.82 cm | 10.72 pg/mg
